Laboratory results: patent US20230141988A1, “PHARMACEUTICAL COMPOSITION FOR USE IN THE TREATMENT OF NEUROLOGICAL DISEASES” (Aclipse One Inc., priority 2020, published 2023)
Where two headings read alike, the source gives them in different places.

What was measured:
[1] = Plasma and CSF pharmacokinetic study, single sublingual, oral or subcutaneous dose, male Beagle dogs; format: in vivo; conditions: male, beagle, dog; for concentration at 0.033 h: 119 s; for AUC(0-inf): read-out: AUCinf
Experimental: Animals were fed twice daily. […] Food was withheld until 4-hour post-dose.
All blood samples were collected from a peripheral vessel.
For CSF collection, a polypropylene tube was first weighted to accuracy of 0.1 mg (weight #1). CSF was collected in the tube and weighted again (weight #2). Total CSF weight was calculated by subtracting weight #1 from weight #2. Samples were kept on ice and protected from sunlight. Stabilizing agent (ascorbic acid 200 mg/mL) was added within 60 minutes in a proportion of 10% in CSF. Frozen CSF samples on dry ice were stored at −60° C. or lower until bioanalysis.
All CSF samples were added with the equal volume of plasma. […] 30 μL supernatant was then mixed with 30 μL water, vortex-mixed well and centrifuged at 4° C.
Dilution procedure description: Dilution factor as 5—An aliquot of 2 μL sample was added with 8 μL blank matrix.
The flow rate was 0.6 mL/min. The injection volume was 3 μL. The following gradient was implemented: […]

[2] = plasma, fed male Cynomolgus Monkeys, PO 10 mg/kg, animal 168777C
Experimental: Three male Cynomolgus Monkeys were administrated a single oral dose at 10 mg/kg. The oral vehicle was 10% (w/v) HP-β-CD in water.
Male Cynomolgus Monkeys were purchased from Topgene Biotechnology. The animals were 2-5 years old with body weights of 2.0-5.0 kg on the dosing date. The animals were housed in a 12-hour light/12-hour dark cycle environment and had free access to food and water.
All animals for PO administration were fasted overnight prior to dosing and will be fed approximately 2 hours after dosing.
Three male Cynomolgus Monkeys were assigned to this study. […] The dosing regimens and formulation (vehicle) compositions are described in the following table below:
Animals were weighed prior to dose administration on the day of dosing for calculating the actual dose volume. The dosages were prepared as illustrated in the table below:
Blood samples were taken at the following times:
Whole blood samples were gently inverted several times to ensure anticoagulation then placed on wet ice prior to centrifugation. Within 30 minutes of collection, the samples were centrifuged at approximately 4,000×g (force) for 5 minutes at 2 to 8° C. to obtain plasma. The stabilizing agent, ascorbic acid at 200 mg/mL, was added in a proportion of 10% in plasma. The plasma samples were stored in a freezer at −75±15° C. prior to analysis. The completion time from collection was less than 60 min. The resultant plasma samples will be immediately separated divided into 2 aliquots (˜75 μL each) and transferred to cryogenic vial. Samples will be maintained on wet ice throughout processing, and stored in a freezer at −75±15° C. prior to analysis. Samples should be protected from ambient light (under sodium lamp).
Calibration standard working solutions were prepared at concentrations of 2, 5, 10, 20, 100, 500, 1000, 5000, 10000 ng/mL by serial dilution of the standard stock solution in 1:1 acetonitrile:water. Quality control working solutions at concentrations of 5, 10, 20, 500 and 8000 ng/mL were prepared by serial dilution of the standard stock solution in 1:1 acetonitrile:water. The QC samples were prepared on the day of analysis in the same way as calibration standards.
Samples were prepared with 5 μL of each calibration standard working solution (2, 5, 10, 20, 100, 500, 1000, 5000, 10000 ng/mL) added to 50 μL of the blank Cynomolgus Monkeys plasma to achieve calibration standards concentrations of 0.2, 0.5, 1, 2, 10, 50, 100, 500, 1000 ng/mL (relative to a 50-4, plasma aliquot). Quality Control (QC) samples at 0.5 ng/mL (low-1), 1 ng/mL (low-2), 2 ng/mL (low-3), 50 ng/mL (mid) and 800 ng/mL (high) for plasma were prepared independently for those used for the calibration curves.
Total volumes of 55 μL of standards, 55 μL of QC samples and 55 μL of unknown samples (50 μL of plasma with 5 μL of 1:1 acetonitrile:water) were added to 200 μL of acetonitrile containing IS to precipitate proteins. Then the samples were vortexed for 30 sec. […] All of the samples were processed on ice.
The LC-MS/MS system consisted of two Shimadzu LC-30AD pumps, a DGU-20A5R degasser, a Rack changer II and an AB Sciex Triple Quad 5500 LC/MS/MS mass spectrometer. Chromatographic separation was performed on Agilent ZORBAX XDB-Phenyl 5 μm (50×2.1 mm) at room temperature. The mobile phase was composed of A: 5% Acetonitrile/95% water (0.1% Formic acid); B: 95% Acetonitrile/5% water (0.1% Formic acid). The flow rate was 0.6 mL/min. The injection volume was 2 μL.
A multiple reaction monitoring (MRM) method was selected for quantitative analysis. […] The instrument parameters were set as follows: ion spray voltage: 5500 V; curtain gas: 40 psi; ion source gas 1: 50 psi; ion source gas 2: 50 psi; temperature: 450° C. The compound dependent parameters are listed as follows:
HPLC flow rate was set at 0.6 mL/min with the following conditions:

[3] = rat, in vivo; for plasma concentration: male, SD
Experimental: The vehicle for the IV, subcutaneous, PO and IN formulation contained “0.1% sodium metabisulfite solution”.
Male SD rats were purchased from Si Bei Fu Laboratory Animal Technology Co. Ltd (Beijing, China). The animals were about 8 weeks old with body weights of 200-300 g on the dosing date. The animals were housed in a 12-hour light/12-hour dark cycle environment and had free access to food and water. All animals were fasted overnight and fed after 4 hours collection.
Plasma samples were collected from jugular vein at each time point after IV, subcutaneous, PO and IN administrations.
About 200 μL of blood samples were collected from each animal via jugular vein. These blood samples were placed into the tubes containing K2EDTA. And centrifugation at 3000 g for 10 minutes in a 4° C. centrifuge. The completion time from collection was less than 30 min. The stabilizing agent of ascorbic acid at 200 mg/mL was added in a proportion of 10% in plasma. The plasma samples were stored in a freezer at −75±15° C. prior to analysis. The completion time from collection was less than 60 min.
Calibration standard working solutions were prepared at concentrations of 2, 5, 10, 20, 50, 100, 500, 1000, 5000 and 10000 ng/mL by serial dilution of the standard stock solution in 50% acetonitrile in water. Quality control working solutions at concentrations of 5, 10, 20, 500 and 8000 ng/mL were prepared by serial dilution of the standard stock solution in 50% acetonitrile in water. These QC samples were prepared on the day of analysis in the same way as calibration standards.
For plasma samples, 2 μL of each calibration standard working solution (2, 5, 10, 20, 50, 100, 500, 1000, 5000 and 10000 ng/mL) was added to 20 μL of the blank SD rat plasma (with 10% 200 mg/mL ascorbic acid) to achieve calibration standards of 0.2-1000 ng/mL (0.2, 0.5, 1, 2, 5, 10, 50, 100, 500, 1000 ng/mL) in a total volume of 22 μL. Quality Control (QC) samples at 0.5 ng/mL (low-1), 1 ng/mL (low-2) and 2 ng/mL (low-3), 50 ng/mL (mid), 800 ng/mL (high) for plasma were prepared independently for those used for the calibration curves. These QC samples were prepared on the day of analysis in the same way as calibration standards. The total volumes of 22 μL of standards, 22 μL of QC samples and 22 μL of unknown samples (20 μL of unknown plasma (with 10% 200 mg/mL ascorbic acid) with 2 μL 50% acetonitrile) were added to 200 μL of acetonitrile containing IS to precipitate proteins. Then the samples were vortexed for 30 sec. After centrifugation at 4° C., 4700 rpm for 30 min, and supernatant was diluted 2 times with water, 10 μL of the diluted supernatant was injected into the LC-MS/MS system for quantitative analysis.
All the samples were processed on ice.
The LC-MS/MS system consisted of two Shimadzu LC-30AD pumps, a DGU-20A5R degasser, a Rack changer II and LCMS-8060 LC/MS/MS instrument mass spectrometer.
OD-3R Particle size 3 μm 4.6 mm×150 mm column at room temperature. The mobile phase was composed of A: Water (5 mM Ammonium Acetate); B: Ethanol (5 mM Ammonium Acetate). The flow rate was 0.5 mL/min. The injection volume was 10 μL.
A multiple reaction monitoring (MRM) method was selected for quantitative analysis. […] The instrument parameters were set as follows: ion spray voltage: 8060; heating gas flow: 10 L/min; interface temperature: 250° C.; DL temperature: 220° C.; heat block temperature: 400° C.; drying gas flow: 10 L/min.
Data acquisition was performed by Lab Solutions version 5.89 Software (Shimadzu). All concentration data was reported with 3 significant figures. Data statistics were performed using Excel 2010 software.
The linear trapezoidal algorithm was used for AUC calculation.

[4] = subcutaneous […], plasma, mean of 3 mice
Experimental: 9 male C57BL/6J mice following administration of a single subcutaneous dose of 4.40 mg/kg. The vehicle for the subcutaneous formulation contained “0.1% sodium metabisulfite solution”.
(§1) Male C57BL/6J mice were purchased from Si Bei Fu Laboratory Animal Technology Co. Ltd (Beijing, China). The animals were about 8 weeks old with body weights of 20-30 g on the dosing date. The animals were housed in a 12-hour light/12-hour dark cycle environment and had free access to food and water. All animals were fasted overnight and fed after 4 hours collection.
For group 1, plasma samples were collected from dorsal metatarsal vein at each time point after subcutaneous administrations.
For plasma samples, about 30 μL or 300 μL of blood samples were collected from each animal via dorsal metatarsal vein or heart. These blood samples were placed into the tubes containing K2EDTA. And centrifugation at 3000 g for 10 minutes in a 4° C. centrifuge. The completion time from collection was less than 30 min. The stabilizing agent of ascorbic acid at 200 mg/mL was added in a proportion of 10% in plasma. The plasma samples were stored in a freezer at −75±15° C. prior to analysis. The completion time from collection was less than 60 min.
For brain and CSF samples, The animals were fully exsanguinated with a rising concentration of CO2 gas prior to CSF and brain collection.
For CSF collection, incision was made by scissors on the neck of the rats to expose the foramen magnum. A syringe fitted with a venoclysis needle was used to sample the CSF, the tip of the needle was inserted into the membrane of foramen magnum about 1-2 mm, and a negative pressure was applied by pulling a stopcock a small length of the syringe to extract CSF fluids into a tube. The stopcock was further actuated to until a sufficient amount of CSF was collected. There should be no blood in the CSF fluid. A stabilizing agent of ascorbic acid at 200 mg/mL was added in a proportion of 10% in CSF.
For brain collection. Brain samples were collected at an adopted time point, and washed 3 times with cold saline, then dried with clean gauze and put into the weighed tube, quick frozen in an ice box and kept at −75±15° C. All brain samples were weighted and homogenized with phosphate buffered saline (PBS) by brain weight (g) to PBS volume (mL) ratio 1:3 before analysis. The stabilizing agent of ascorbic acid at 200 mg/mL was added in a proportion of 10% in grain homogenate. The actual concentration was the detected value multiplied by the dilution factor. Brain samples were collected at designed time point, quickly homogenized and kept at −75±15° C.
Calibration standard working solutions were prepared at concentrations of 2, 5, 10, 20, 50, 100, 500, 1000, 5000 and 10000 ng/mL by serial dilution of the standard stock solution in 50% acetonitrile in water. Quality control working solutions at concentrations of 5, 10, 500 and 8000 ng/mL were prepared by serial dilution of the standard stock solution in 50% acetonitrile in water. These QC samples were prepared on the day of analysis in the same way as calibration standards.
For plasma and brain samples, 3 μL of each calibration standard working solution (2, 5, 10, 20, 50, 100, 500, 1000, 5000 and 10000 ng/mL) was added to 30 μL of the blank C57BL/6J mouse plasma or brain homogenate (with 10% 200 mg/mL ascorbic acid) to achieve calibration standards of 0.2-1000 ng/mL (0.2, 0.5, 1, 2, 5, 10, 50, 100, 500, 1000 ng/mL) in a total volume of 33 μL. Quality Control (QC) samples at 0.5 ng/mL (low-1), 1 ng/mL (low-2), 50 ng/mL (mid), 800 ng/mL (high) for plasma were prepared independently for those used for the calibration curves. These QC samples were prepared on the day of analysis in the same way as calibration standards.

in vivo = conditions: male, C57BL/6J, mouse, po, 25 mg/kg; for concentration at […]: […] post last day (Day 4) dose
Experimental: as §1
The formulation was freshly made prior to use. Preparation of formulation for oral dosing are as follows:
For Group 1 and 2, blood, CSF and brain samples were collected from 3 mice at the following time points.
Plasma samples: About 30 μL or 300 μL of blood samples were collected from each animal via dorsal metatarsal vein or heart. These blood samples were placed into the tubes containing K2EDTA. And centrifugation at 3000 g for 10 minutes in a 4° C. centrifuge. The completion time from collection was less than 30 min. The stabilizing agent of ascorbic acid at 200 mg/mL was added in a proportion of 10% in plasma. The plasma samples were stored in a freezer at −75±15° C. prior to analysis. The completion time from collection was less than 60 min.
Brain and CSF Samples: The animals were fully exsanguinated with a rising concentration of CO2 gas prior to CSF and brain collection.
For CSF collection, make an incision by scissors on the neck of the rats, and the foramen magnum is exposed to the sight of scientist. Use a syringe with a venoclysis needle to sample the CSF, the tip of the needle is insert into the membrane of foramen magnum about 1-2 mm, and then pull the stopcock a small length of the syringe to make a negative pressure, then the CSF fluids to the tube. Watch the fluid in the tube and pull the stopcock slowly, when the amount of the CSF is enough, stop and split the needle and the syringe to ensure there is no negative pressure in the tube. Then cut off the needle and collect the CSF fluid. If we could see the blood in the tube, stop immediately, split the needle and the syringe, and then cut off between the blood and CSF to ensure there is no blood in the CSF fluid. Then collect the CSF fluid. The stabilizing agent of ascorbic acid at 200 mg/mL was added in a proportion of 10% in CSF. The completion time from collection was less than 60 min.
For brain collection. Brain samples were collected at adopted time point, and washed 3 times with cold saline, then dried with clean gauze and put into the weighed tube, quick frozen in ice box and kept at −75±15° C. All brain samples were weighted and homogenized with phosphate buffered saline (PBS) by brain weight (g) to PBS volume (mL) ratio 1:3 before analysis. The stabilizing agent of ascorbic acid at 200 mg/mL was added in a proportion of 10% in Brain homogenate. The actual concentration was the detected value multiplied by the dilution factor. Brain samples were collected at designed time point, quickly homogenized and kept at −75±15° C. The completion time from collection was less than 60 min.
Calibration standard working solutions were prepared at concentrations of 0.2, 0.5, 1, 2, 5, 10, 50, 100, 500, 1000 ng/mL by serial dilution of the standard stock solution. These QC samples were prepared on the day of analysis in the same way as calibration standards.
Plasma: The desired serial concentrations of working solutions were achieved by diluting stock solution of analyte with 50% acetonitrile in water solution. 10 μL of working solutions (0.1, 0.2, 0.5, 1, 2, 5, 10, 50, 100, 500, 1000 ng/mL) were added to 10 μL of the blank C57BL/6J Mice plasma to achieve calibration standards of 0.1˜1000 ng/mL (0.1, 0.2, 0.5, 1, 2, 5, 10, 50, 100, 500, 1000 ng/mL) in a total volume of 20 μL.

[5] = in vivo, sc, 1 mg/kg, plasma concentration
[6] = in vivo, sc, 1 mg/kg, single SC 1 mg/kg, mean, read-out: CSF concentration

`CN1CCc2cccc3c2[C@@H]1Cc1ccc(O)c(O)c1-3` gave a concentration at 2 h [1, 5] of 3.58 ng/mL, a concentration at 4 h [1, 5] of 1.11 ng/mL and a concentration at 24 h [1, 5] of 1.04 ng/mL. For the same compound, the concentration at […] [1, 5] was 89.2 ng/mL, the Cmax ([1]; in vivo, sc, 1 mg/kg, plasma, single SC 1 mg/kg, individual animal, read-out: Cmax) was 113 ng/mL and the concentration at 0.033 h ([1]; in vivo, sc, 1 mg/kg, single SC 1 mg/kg, individual animal, read-out: CSF concentration) was 22.6 ng/mL. It also gave a concentration at 0.033 h [1, 6] of 12.2 ng/mL, a concentration at 0.5 h ([1]; in vivo, sc, 1 mg/kg, single SC 1 mg/kg, 0.500 h, individual animal, read-out: CSF concentration) of 17.8 ng/mL and a concentration at 1 h ([1]; in vivo, sc, 1 mg/kg, single SC 1 mg/kg, individual animal, read-out: plasma concentration) of 11.9 ng/mL. The concentration at 1 h [1, 6] was 11.6 ng/mL, the concentration at 2 h ([1]; in vivo, sc, 1 mg/kg, single SC 1 mg/kg, 2.00 h, individual animal, read-out: CSF concentration) was 12.8 ng/mL and the concentration at 4 h ([1]; in vivo, sc, 1 mg/kg, single SC 1 mg/kg, 4.00 h, individual animal, read-out: CSF concentration) was 10.2 ng/mL. It also gave a concentration at 8 h ([1]; in vivo, sc, 1 mg/kg, single SC 1 mg/kg, 8.00 h, individual animal, read-out: CSF concentration) of 4.37 ng/mL, a Kp ([1]; in vivo, AUClast ratio of CSF to total plasma, single SC 1 mg/kg, individual animal, read-out: AUC Ratio) of 1.48 and an AUC(0-t) ([1]; plasma, 5 mg/kg, male Beagle dogs (fasted), single SL 5 mg/kg, individual dogs) of 165 ng·h/mL. For the same compound, the AUC(0-inf) ([1]; plasma, 5 mg/kg, male Beagle dogs (fasted), single SL 5 mg/kg, plasma, individual dogs) was 178 ng·h/mL, the AUC(0-inf) ([1]; plasma, sc, 1 mg/kg, plasma, single SC 1 mg/kg, individual animal) was 115 ng·h/mL and the AUClast/D [2] was 4.26 mg·h/mL. The plasma concentration ([3]; 0.5 h) was 35.7 ng/mL, the plasma concentration ([3]; iv, 0.88 mg/kg, 1 h) was 6.23 ng/mL and the “animal death related to drug administration” value [3] was “no animal death related to drug administration”. The “drug-related changes in clinical signs and behavioral responses” value [3] was “no obvious drug-related changes in clinical signs and behavioral responses”, the AUClast/D [4] was 73.8 mg·h/mL and the Tmax (in vivo) was 6 min. The AUC(0-t) (in vivo; AUClast, plasma, Mean, male C57BL/6J mice, single oral dose 25 mg/kg) was 857 ng·h/mL, the concentration at 0.5 h (in vivo; Brain concentration, Mean) was 65.7 ng/g and the concentration at 1 h (in vivo; Brain concentration, Mean) was 22.6 ng/g. It also gave a concentration at 2 h (in vivo; Brain concentration, Mean) of 16.8 ng/g, a concentration at 3 h (in vivo; Brain concentration, Mean) of 11.5 ng/g and a concentration at […] (in vivo; Brain concentration, Mean, male C57BL/6J mice, repeated oral dose 25 mg/kg) of 2330 ng/g. The concentration at 2 h (in vivo; Brain concentration, male C57BL/6J mice, repeated oral dose 25 mg/kg, 2 h post last day (Day 4) dose, G3) was 10.9 ng/g, the concentration at […] (in vivo; Brain concentration, male C57BL/6J mice, repeated oral dose 25 mg/kg, G3) was 1080 ng/g and the concentration at 1 h (in vivo; CSF concentration) was 3.71 ng/mL. The concentration at 2 h (in vivo; CSF concentration) was 3.08 ng/mL, the concentration at 4 h (in vivo; CSF concentration) was 4.08 ng/mL and the concentration at 0.5 h (in vivo; CSF concentration, Mean) was 7.7 ng/mL. For the same compound, the concentration at 1 h (in vivo; CSF concentration, Mean) was 3.32 ng/mL, the concentration at 2 h (in vivo; CSF concentration, Mean) was 3.56 ng/mL and the concentration at 4 h (in vivo; CSF concentration, Mean) was 3.42 ng/mL. The concentration at […] (in vivo; CSF concentration, Mean, male C57BL/6J mice, repeated oral dose 25 mg/kg) was 50.2 ng/mL, the concentration at […] (in vivo; CSF concentration, male C57BL/6J mice, repeated oral dose 25 mg/kg, G2) was 178 ng/mL and the concentration at 1 h (in vivo; CSF concentration, male C57BL/6J mice, single oral dose 25 mg/kg, 1 h, G3) was 3.18 ng/mL. The Cmax (in vivo) was 200 ng/mL, the Cmax (in vivo; CSF, Mean, male C57BL/6J mice, single oral dose 25 mg/kg) was 56.4 ng/mL and the Cmax (in vivo; brain, Mean, male C57BL/6J mice, last day (Day 4) of repeated oral dose 25 mg/kg) was 2330 ng/mL. The Cmax (in vivo; brain, Mean, male C57BL/6J mice, single oral dose 25 mg/kg) was 729 ng/mL, the Cmax (in vivo; plasma, Mean, male C57BL/6J mice, last day (Day 4) of repeated oral dose 25 mg/kg) was 1360 ng/mL and the Cmax (in vivo; plasma, Mean, male C57BL/6J mice, single oral dose 25 mg/kg) was 1150 ng/mL. For the same compound, the concentration at 2 h (in vivo; Plasma concentration) was 100 ng/mL, the concentration at 8 h (in vivo; Plasma concentration) was 0.765 ng/mL and the concentration at 12 h (in vivo; Plasma concentration) was 0.198 ng/mL. The concentration at 0.5 h (in vivo; Plasma concentration, Mean) was 528 ng/mL, the concentration at 1 h (in vivo; Plasma concentration, Mean) was 235 ng/mL and the concentration at 2 h (in vivo; Plasma concentration, Mean) was 74.4 ng/mL. The concentration at 3 h (in vivo; Plasma concentration, Mean) was 72.4 ng/mL, the concentration at 8 h (in vivo; Plasma concentration, Mean) was 0.87 ng/mL and the concentration at 12 h (in vivo; Plasma concentration, Mean) was 0.174 ng/mL. For the same compound, the concentration at […] (in vivo; Plasma concentration, Mean, male C57BL/6J mice, repeated oral dose 25 mg/kg) was 1360 ng/mL, the concentration at 2 h (in vivo; Plasma concentration, Mean, male C57BL/6J mice, single oral dose 25 mg/kg, 2 h) was 122 ng/mL and the concentration at 1 h (in vivo; Plasma concentration, male C57BL/6J mice, repeated oral dose 25 mg/kg, 1 h post last day (Day 4) dose, G1) was 112 ng/mL. It also gave a concentration at 3 h (in vivo; Plasma concentration, male C57BL/6J mice, repeated oral dose 25 mg/kg, 3 h post last day (Day 4) dose, G3) of 73.1 ng/mL, a concentration at 8 h (in vivo; Plasma concentration, male C57BL/6J mice, repeated oral dose 25 mg/kg, 8 h post last day (Day 4) dose, G3) of 1.24 ng/mL and a concentration at […] (in vivo; Plasma concentration, male C57BL/6J mice, repeated oral dose 25 mg/kg, G1) of 1460 ng/mL. It also gave a concentration at […] (in vivo; Plasma concentration, male C57BL/6J mice, repeated oral dose 25 mg/kg, G2) of 1520 ng/mL, a concentration at […] (in vivo; Plasma concentration, male C57BL/6J mice, repeated oral dose 25 mg/kg, G3) of 1110 ng/mL and a concentration at 1 h (in vivo; Plasma concentration, male C57BL/6J mice, single oral dose 25 mg/kg, 1 h, G2) of 162 ng/mL. For the same compound, the concentration at 2 h (in vivo; Plasma concentration, male C57BL/6J mice, single oral dose 25 mg/kg, 2 h, G2) was 138 ng/mL.
